Laboratory results from article doi:10.1101/2025.08.22.671821v1, “Cross-regulation of (p)ppGpp and c-di-GMP pathways controls a cell-cycle transition” (biorxiv, 2025).

Tests used:
[1] = biological target: T1, PleDSM (Sinorhizobium meliloti, UniProt Q92QM5); experiment: c-di-GMP synthesis, C18-HPLC; assay type: biochemical; conditions: 100 µM GTP, 40 µM protein, 10 mM MgCl2, pH 7.8, 25 °C
T1 construct: gene pleD; His-tagged, pET28a-pleDSM, E. coli BL21(DE3), Ni-NTA and SEC
T1 sequence (Q92QM5 1-455): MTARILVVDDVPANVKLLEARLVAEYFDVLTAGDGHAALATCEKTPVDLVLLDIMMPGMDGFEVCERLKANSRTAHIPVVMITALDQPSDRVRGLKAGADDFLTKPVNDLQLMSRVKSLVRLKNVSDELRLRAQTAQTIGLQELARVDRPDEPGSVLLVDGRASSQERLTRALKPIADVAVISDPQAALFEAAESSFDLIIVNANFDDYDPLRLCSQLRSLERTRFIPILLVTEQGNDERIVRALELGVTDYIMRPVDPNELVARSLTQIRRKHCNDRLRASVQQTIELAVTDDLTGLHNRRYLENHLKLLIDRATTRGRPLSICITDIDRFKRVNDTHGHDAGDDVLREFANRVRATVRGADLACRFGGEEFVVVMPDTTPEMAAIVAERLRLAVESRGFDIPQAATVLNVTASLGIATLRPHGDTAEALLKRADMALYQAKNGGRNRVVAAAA

[2] = biological target: T2, WspR (Pseudomonas aeruginosa, UniProt Q9HXT9); experiment: c-di-GMP synthesis, C18-HPLC; assay type: biochemical; conditions: 100 µM GTP, 40 µM protein, 10 mM MgCl2, pH 7.8, 25 °C
T2 construct: His-tagged, pET28a-wspR, E. coli BL21(DE3), Ni-NTA and SEC
T2 sequence (Q9HXT9 entry or part of it): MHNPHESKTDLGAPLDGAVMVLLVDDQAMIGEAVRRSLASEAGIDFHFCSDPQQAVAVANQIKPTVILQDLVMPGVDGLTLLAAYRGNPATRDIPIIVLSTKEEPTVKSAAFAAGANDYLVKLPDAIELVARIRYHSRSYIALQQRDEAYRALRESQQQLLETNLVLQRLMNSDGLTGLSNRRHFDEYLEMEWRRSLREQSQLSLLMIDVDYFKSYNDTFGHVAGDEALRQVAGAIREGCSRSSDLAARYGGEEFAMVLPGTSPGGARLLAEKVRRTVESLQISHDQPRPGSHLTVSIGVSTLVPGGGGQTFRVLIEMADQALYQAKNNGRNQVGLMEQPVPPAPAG

[3] = biological target: T3, PleD (PleDCC) (Caulobacter vibrioides, UniProt B8GZM2); experiment: ITC; assay type: binding
T3 construct: full-length D1-D2-DGC, His-tagged, pET11b-pleD, E. coli BL21(DE3), Ni-NTA and SEC; unphosphorylated
T3 sequence (B8GZM2 1-454): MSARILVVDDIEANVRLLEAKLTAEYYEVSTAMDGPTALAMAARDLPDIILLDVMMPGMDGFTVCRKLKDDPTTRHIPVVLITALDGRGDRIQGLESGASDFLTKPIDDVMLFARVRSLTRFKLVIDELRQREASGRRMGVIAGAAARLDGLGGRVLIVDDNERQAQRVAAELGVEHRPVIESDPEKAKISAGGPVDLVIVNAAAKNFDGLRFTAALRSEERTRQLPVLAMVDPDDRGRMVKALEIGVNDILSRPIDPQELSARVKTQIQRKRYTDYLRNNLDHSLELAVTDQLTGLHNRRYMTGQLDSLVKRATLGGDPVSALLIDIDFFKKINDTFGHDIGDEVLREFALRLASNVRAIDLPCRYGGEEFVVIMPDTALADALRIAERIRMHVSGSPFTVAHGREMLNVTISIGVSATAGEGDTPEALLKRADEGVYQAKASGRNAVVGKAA

[4] = biological target: T3, PleD (PleDCC); experiment: crystal structure ([…] and […] Å); assay type: binding; conditions: I-site (inhibitory site), two molecules per monomer; with ppGpp (9G85) or pppGpp (9G86)
[5] = biological target: T4, PleDAT (Agrobacterium fabrum, UniProt A9CJ98); experiment: nanoDSF; assay type: binding; conditions: 100 µM protein, 1 mM ligand, pH 7.8, 5 mM MgCl2
T4 construct: gene pleD; His-tagged, pET28a-pleDAT, E. coli BL21(DE3), Ni-NTA and SEC
T4 sequence (A9CJ98 entry or part of it): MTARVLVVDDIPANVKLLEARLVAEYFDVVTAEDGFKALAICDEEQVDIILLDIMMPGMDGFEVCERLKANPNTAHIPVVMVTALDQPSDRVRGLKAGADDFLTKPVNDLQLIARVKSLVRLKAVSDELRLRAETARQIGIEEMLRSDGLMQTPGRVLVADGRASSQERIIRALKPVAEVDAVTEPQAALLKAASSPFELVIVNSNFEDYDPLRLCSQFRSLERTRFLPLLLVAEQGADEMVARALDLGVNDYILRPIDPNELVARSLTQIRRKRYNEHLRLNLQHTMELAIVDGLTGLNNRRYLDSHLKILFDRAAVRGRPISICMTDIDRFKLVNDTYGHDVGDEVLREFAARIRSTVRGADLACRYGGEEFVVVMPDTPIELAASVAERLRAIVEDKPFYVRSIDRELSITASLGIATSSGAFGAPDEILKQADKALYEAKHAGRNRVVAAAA

[6] = biological target: T1, PleDSM; experiment: c-di-GMP synthesis, C18-HPLC; assay type: biochemical; conditions: 100 µM GTP, 40 µM protein, 10 mM MgCl2, pH 7.8, 25 °C, 2 h
[7] = biological target: T3, PleD (PleDCC); experiment: c-di-GMP synthesis, C18-HPLC; assay type: biochemical
[8] = biological target: T4, PleDAT; experiment: c-di-GMP synthesis, C18-HPLC; assay type: biochemical; conditions: 100 µM GTP, 40 µM protein, 10 mM MgCl2, pH 7.8, 25 °C, 2 h
[9] = biological target: T2, WspR; experiment: c-di-GMP synthesis, C18-HPLC; assay type: biochemical

Compound	Kd [3] [µM]	ΔTm [5]	% inhibition at 500 μM [6]	inhibition at 500 µM [7] [%]	% inhibition at 500 μM [8]	further results
Nc1nc2c(ncn2[C@@H]2O[C@H](COP(=O)(O)OP(=O)(O)OP(=O)(O)O)[C@@H](O)[C@H]2O)c(=O)[nH]1 [GTP]						c-di-GMP synthesis, C18-HPLC [1]: c-di-GMP production by different diguanylate cyclases (DGCs); c-di-GMP synthesis, C18-HPLC [2]: c-di-GMP production by different diguanylate cyclases (DGCs)
Nc1nc2c(ncn2[C@@H]2O[C@H](COP(=O)(O)CP(=O)(O)OP(=O)(O)O)[C@@H](O)[C@H]2O)c(=O)[nH]1 [GpCpp]	6.01 ± 1.52					
Nc1nc2c(ncn2[C@@H]2O[C@@H]3COP(=O)(O)O[C@H]4[C@@H](O)[C@H](n5cnc6c(=O)[nH]c(N)nc65)O[C@@H]4COP(=O)(O)O[C@H]3[C@H]2O)c(=O)[nH]1 [c-di-GMP]						crystal structure (2.9 and 3 Å) [4]: each monomer of the (p)ppGpp-PleD structures is bound by two cyclic di-GMP molecules
Nc1nc2c(ncn2[C@@H]2O[C@H](COP(=O)(O)OP(=O)(O)OP(=O)(O)O)[C@@H](OP(=O)(O)OP(=O)(O)O)[C@H]2O)c(=O)[nH]1 [pppGpp]	9.31 ± 1.16	NanoDSF assays further confirmed PleDAT binding to (p)ppGpp	ppGpp and pppGpp strongly inhibited c-di-GMP production, with pppGpp showing greater potency	> 90	ppGpp and pppGpp strongly inhibited c-di-GMP production, with pppGpp showing greater potency	inhibition at 500 µM [9]: > 50%
Nc1nc2c(ncn2[C@@H]2O[C@H](COP(=O)(O)OP(=O)(O)O)[C@@H](OP(=O)(O)OP(=O)(O)O)[C@H]2O)c(=O)[nH]1 [ppGpp]	45.4 ± 22.3	NanoDSF assays further confirmed PleDAT binding to (p)ppGpp	ppGpp and pppGpp strongly inhibited c-di-GMP production	> 50	ppGpp and pppGpp strongly inhibited c-di-GMP production	
